The values below come from article PMC6002064, “Validated UPLC-MS/MS method for the quantification of dasatinib in plasma: Application to pharmacokinetic interaction studies with nutraceuticals in Wistar rats” (PLoS ONE, 2018).

Details of data set [1]: method as in PMID 28640225. The note with it: rats; cited from earlier work.
Data set [2] can be described thus: Pharmacokinetic interaction study of oral DAS with nutraceuticals in acetic acid-induced UC Wistar rats (UPLC-MS/MS of plasma). The conditions noted are these: DAS 25 mg/kg oral. Format: in vivo. As for the experimental part: Calibration standards, QC samples, as well as blank plasma samples were centrifugated at 6000 rpm for 5 min. Following the separation of the methanolic supernatants, the residues of individual samples were separately washed with 0.5 mL volumes of methanol. The combined supernatant and washing of each sample were cleaned-up by passing onto STRATA® C 18-E (200 mg, 3 mL) SPE cartridges, previously preconditioned with 3.0 mL methanol followed by 3.0 mL ultrapure water. The retained drugs were eluted from each sample using separate volumes of 0.5 mL methanol. Following the evaporation of the eluted methanolic solutions to dryness under nitrogen, the residue was reconstituted in 0.5 mL acetonitrile. Finally, UPLC–MS/MS analysis of the reconstituted samples was performed by injecting 5 μL volumes of each sample under the operating conditions.
Wistar healthy male rats weighing 250 ± 30 g were provided by the animal house, Women Student-Medical studies & Sciences Sections, College of Pharmacy, King Saud University, Riyadh, Saudi Arabia. The rats were placed in cages kept in a well-ventilated room and subjected to a regular 12 h day–night cycle at a relative humidity of 40–60% and average temperature of 24–27°C. All the rats could access the water freely while diet was prohibited for 12 h before drug administration. The rats were acclimatized for 7 days to laboratory conditions before conducting the experiment. Seven groups of five rats each were involved in the study. For all rats, UC was induced by oral daily administration of 1 mL volumes of 5% glacial acetic acid in water for three successive days. DAS suspension was prepared by triturating 125 mg of DAS with 5 mL aqueous methyl cellulose (0.5%, w/v) to prepare DAS suspension of 25 mg/mL, given to all groups with the exception of group V where olive oil was used for the suspension preparation. Curcumin preparations (50 mg/mL) were prepared by suspending the content of one capsule of either Curcumin 95 500 mg or Super Bio-Curcumin 400 mg in 10 mL or 8 mL volumes of water, respectively. By analogy, a suspension of 50 mg/mL olive leaf extract was prepared by suspending the content of one capsule into 10 mL water. However, for cocoa preparations, 450 mg cocoa extract/ 5 mL, aqueous suspensions of either CocoaVia® capsules or CocoaVia® unsweetened dark chocolate powder were prepared by suspending the content of one capsule or 2 g powder, respectively in water. Separate volumes (0.25 mL) of DAS suspension were orally administered to all treated animals using a gavage needle so that all rats received DAS dose of 25 mg/kg. For the purpose of comparison, rats of group I were only treated with DAS. Rats of groups II and III, curcumin groups, were first separately given an oral dose of […] of either Super Bio-Curcumin, curcumin I (rat group II) or Curcumin 95, curcumin II (rat group III). Then 30 min following curcumin administration, DAS suspension was given to the rats in a dose of 25 mg/kg. Rats of groups IV and V, the olive oil groups, were administered olive oil as follows; rats of group IV were separately given an oral dose of olive leaf extract, olive oil I, 50 mg/kg 30 min prior to DAS administration (25 mg/kg), while rats of groups V were separately given an oral dose of DAS suspended in olive oil, olive oil II (25 mg/kg). Finally, rats of groups VI and VII, cocoa groups, were initially given an oral dose of CocoaVia® capsules, cocoa I, 90 mg/kg (rat group VI), or CocoaVia® unsweetened dark chocolate, cocoa II, 90 mg/kg (rat group VII) 30 min before DAS dosing of 25 mg/kg. For each group, volumes of 0.3 mL blood samples were withdrawn from the retro-orbital sinus of each rat into heparinized tubes. Blood samples were collected at different time intervals; 0 (prior to dosing), 0.5, 1, 2, 3, 5, 6, and 24 h following DAS administration. All collected blood samples were centrifuged immediately at 4,500 rpm (30 min, 4°C).

Data set [3] can be described thus: Stability of DAS in rat plasma QC samples. Format: in vitro ADME. As for the experimental part: QC samples spiked at two concentration levels of DAS, low (3 ng/mL) and high (450 ng/mL), were analyzed (n = 6) in order to assess the drug stability in plasma. Stability testing were performed by exposing the QC plasma samples to different conditions, namely auto-sampler stability (extracted samples left in the auto-sampler at 10°C for 56 h before injection), short-term (bench-top) stability (samples left at room temperature (25 °C) for 6 h), and long-term stability (samples left at -30°C for 30 days). Moreover, freeze-thaw stability was assessed as follows, plasma samples were frozen at around -30°C and then thawed at room temperature for three cycles. For each sample, DAS concentrations were related to the nominal concentrations to calculate the % recovery.

A short description of data set [4]: Stability of DAS solutions. Format: physicochemical.
A short description of data set [5]: Stability of DAS in rat plasma QC samples. The data set is classed as in vitro ADME. The note with it: DAS solutions, 4°C, n = 6, read-out: Mean recovery (%) ±RSD, refrigerator stability.
The mark [6] stands for this setting: male, Wistar, rat, DAS in plasma, n = 5, mean±SD.

Each structure is given as a SMILES string.

Regarding `CC(=O)N1CCN(c2ccc(OCC3COC(Cn4ccnc4)(c4ccc(Cl)cc4Cl)O3)cc2)CC1` (stereo not shown) [ketoconazole], the “effect of co-administration on the PK of sorafenib” value in data set [1] is on record as “did not cause a significant effect”.
For `Cc1nc(Nc2ncc(C(=O)Nc3c(C)cccc3Cl)s2)cc(N2CCN(CCO)CC2)n1` [DAS, Dasatinib], in data set [2] (DAS, n = 5, mean±SD), the CL was determined as 153 ± 66.8 mL/min/kg and the Vd stood at 238.12 ± 44.22 L/kg. Moreover, in data set [2] (setting [6]), the area under the curve AUC(0-inf) (as a rule, total exposure, with the tail of the curve extrapolated) turned out to be 2660 ± 596 ng·h/mL; the AUC(0-t) (as a rule, the area under the concentration-time curve up to a stated or last time point) is 1640 ± 681 ng·h/mL; the Tmax (usually the time from dosing to the highest level) came out at 0.51 ± 0.08 h. In addition, in data set [2] (male, Wistar, rat, DAS in plasma, n = 5, mean±SD, nutraceutical given orally 30 min before DAS (olive oil II: DAS suspended in it)), the Cmax (in general, the highest concentration seen after dosing) amounted to 230 ± 31 ng/mL. Further, the MRT last in data set [2] (male, Wistar, rat, DAS in plasma, n = 5, mean±SD, read-out: MRT0-t) was 8.6 ± 0.88 h. Also, the MRT inf in data set [2] (male, Wistar, rat, DAS in plasma, n = 5, mean±SD, read-out: MRT0-∞) was 24.4 ± 4.29 h. For the same compound, in data set [2] (male, Wistar, rat, DAS in plasma, n = 5, mean±SD, read-out: t½ (converted)), the half-life was 17.9 ± 2.15 h. Moreover, the concentration at 0 h in data set [2] (male, Wistar, rat, plasma, time 0 h (prior to dosing), read-out: Conc*10 (ng/mL plasma), average DAS plasma concentration) was 28.6 ng/mL. Besides, in data set [2] (male, Wistar, rat, plasma, time 0.5 h, read-out: Conc*10 (ng/mL plasma), average DAS plasma concentration), the concentration at 0.5 h is 236 ng/mL. Moreover, in data set [2] (male, Wistar, rat, plasma, time 1 h, read-out: Conc*10 (ng/mL plasma), average DAS plasma concentration), the concentration at 1 h was determined as 153 ng/mL. In data set [2] (male, Wistar, rat, plasma, time 2 h, read-out: Conc*10 (ng/mL plasma), average DAS plasma concentration), the concentration at 2 h came out at 117 ng/mL. Besides, the concentration at 3 h in data set [2] (male, Wistar, rat, plasma, time 3 h, read-out: Conc*10 (ng/mL plasma), average DAS plasma concentration) came out at 99.7 ng/mL. For the same compound, in data set [2] (male, Wistar, rat, plasma, time 5 h, read-out: Conc*10 (ng/mL plasma), average DAS plasma concentration), the concentration at 5 h was 79.1 ng/mL. The concentration at 6 h in data set [2] (male, Wistar, rat, plasma, time 6 h, read-out: Conc*10 (ng/mL plasma), average DAS plasma concentration) was found to be 69.6 ng/mL. Further, in data set [2] (male, Wistar, rat, plasma, time 24 h, read-out: Conc*10 (ng/mL plasma), average DAS plasma concentration), the concentration at 24 h amounted to 39.8 ng/mL. For the same compound, the recovery at 56 h, 3 ng/mL in data set [3] (extracted rat plasma QC samples, 10°C, 56 h, extracted samples, 3 ng/mL in rat plasma, n = 6, read-out: Mean recovery (%) ±RSD, auto-sampler stability) was found to be 97.3%. Besides, the recovery at 56 h, 450 ng/mL in data set [3] (extracted rat plasma QC samples, 10°C, 56 h, extracted samples, 450 ng/mL in rat plasma, n = 6, read-out: Mean recovery (%) ±RSD, auto-sampler stability) worked out at 98.5%. Also, the recovery at 6 h, 3 ng/mL in data set [3] (rat plasma QC samples, 25°C, 6 h, 3 ng/mL in rat plasma, n = 6, read-out: Mean recovery (%) ±RSD, short-term stability) amounted to 96.1%. Further, in data set [3] (rat plasma QC samples, 25°C, 6 h, 450 ng/mL in rat plasma, n = 6, read-out: Mean recovery (%) ±RSD, short-term stability), the recovery at 6 h, 450 ng/mL was found to be 97.2%. In data set [3] (rat plasma QC samples, -30°C, 3 cycles, 3 ng/mL in rat plasma, n = 6, read-out: Mean recovery (%) ±RSD, freeze-thaw stability), the recovery at 3 freeze-thaw cycles, 3 ng/mL worked out at 101%. The recovery at 3 freeze-thaw cycles, 450 ng/mL in data set [3] (rat plasma QC samples, -30°C, 3 cycles, 450 ng/mL in rat plasma, n = 6, read-out: Mean recovery (%) ±RSD, freeze-thaw stability) was 99.5%. Besides, the recovery at 30 days, 3 ng/mL in data set [3] (rat plasma QC samples, -30°C, 30 days, 3 ng/mL in rat plasma, n = 6, read-out: Mean recovery (%) ±RSD, long-term stability) came out at 97.9%. Further, the recovery at 30 days, 450 ng/mL in data set [3] (rat plasma QC samples, -30°C, 30 days, 450 ng/mL in rat plasma, n = 6, read-out: Mean recovery (%) ±RSD, long-term stability) is 97.3%. The recovery in data set [3] (rat, rat plasma QC samples, all handling and storage conditions of Table 6, 3 and 450 ng/mL in plasma, read-out: recovery values in stability studies) is at least 96.1%. Besides, the “stability of DAS solutions” value in data set [4] (room temperature for 6 h) was “stable”. The “stability of DAS solutions” value in data set [4] (up to 3 months at the refrigerator (4°C)) is recorded as “stable”. Further, the recovery at 3 months, 3 ng/mL in data set [5] (3 ng/mL) was 99.9%. Moreover, the recovery at 3 months, 450 ng/mL in data set [5] (450 ng/mL) worked out at 98.1%.
